Some test systems named below: UO-31; A498; HCT-15; SK-MEL-2; OVCAR-5; RPMI-8226; A549; K562; 786-0; COLO 205; SK-MEL-28; SK-MEL-5; SF-539; NCI-H23; HCC 2998; SF-268; CAKI-1; RXF 393.
Assay in all cases: inhibition of tumour cell growth, NCI panel, 48 h

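Briefly, cells in 96-well plates were exposed to five compound concentrations for 48 h, and endpoints were estimated by linear interpolation. GI50 marks 50% less growth.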 The source made the active and inactive calls. Cut-off read from the data, not from the text of the source: active = GI50 up to about 1.1 µM and inactive = higher. Where only a bound is given, the exact number is not on record here.

This is an account of results in ChEMBL document CHEMBL1201862, “PubChem BioAssay data set” (2004).

As for `O=S(=O)(c1ccccc1)c1nccs1`, the GI50 in the assay on UO-31 is > 100 µM (inactive); with A498, > 100 µM (inactive); in the assay on HCT-15 it was greater than 100 µM; in the assay with SK-MEL-2 it was > 100 µM (inactive); in the assay on OVCAR-5 it was > 100 µM (inactive); in the assay on RPMI-8226, > 100 µM (inactive). The GI50 in the assay with A549, in the assay on K562, in the assay on 786-0, with COLO 205, in the assay with SK-MEL-28 and in the assay on SK-MEL-5 was > 100 µM (inactive) each time. The GI50 in the assay with SF-539, in the assay on NCI-H23, in the assay on HCC 2998, with SF-268 and in the assay on CAKI-1 was > 100 µM (inactive) throughout.

Consider `COC(=O)c1sc(C(=O)OC)c2c1C[S+]([O-])C2`, for which the GI50 in the assay with UO-31 is > 100 µM (inactive); with A498 it was > 100 µM (inactive); with HCT-15, greater than 100 µM; in the assay with SK-MEL-2, > 100 µM (inactive); in the assay on OVCAR-5, > 100 µM (inactive); with RPMI-8226, > 100 µM (inactive). In addition, the GI50 in the assay on A549, in the assay with K562, with 786-0, in the assay on COLO 205, in the assay with SK-MEL-28 and in the assay on SK-MEL-5 was > 100 µM (inactive) each time. Moreover, the GI50 with RXF 393, in the assay on SF-539, in the assay on NCI-H23, in the assay on HCC 2998, with SF-268 and in the assay on CAKI-1 was > 100 µM (inactive) in each case.

For the molecule `CNS(=O)(=O)NNS(=O)(=O)c1ccc(C)cc1`, the GI50 in the assay with UO-31, with A498, in the assay on SK-MEL-2, in the assay on OVCAR-5, in the assay with RPMI-8226 and in the assay on A549 was > 100 µM (inactive) each time. The GI50 with K562, in the assay on 786-0, in the assay on COLO 205, in the assay with SK-MEL-28, with SK-MEL-5 and in the assay with RXF 393 was > 100 µM (inactive) in each case. Also, the GI50 in the assay on SF-539, in the assay on NCI-H23, with HCC 2998, with SF-268 and with CAKI-1 was > 100 µM (inactive) throughout.

`O=C1N[C@@H]2CCCC[C@@H]2C12CCCCC2`: the GI50 with UO-31, in the assay on A498, in the assay with OVCAR-5, in the assay with RPMI-8226, with A549 and with K562 was > 100 µM (inactive) each time. Besides, the GI50 in the assay on 786-0, in the assay on SK-MEL-28, in the assay on RXF 393, with SF-539, in the assay with NCI-H23 and in the assay with HCC 2998 was > 100 µM (inactive) in each case. In addition, in the assay on SF-268, the GI50 is > 100 µM (inactive).

Take `O=C(/N=C(/Nc1ccccc1)SCS/C(=N\C(=O)c1ccco1)Nc1ccccc1)c1ccco1`: the GI50 in the assay on UO-31 is 44.8 µM (inactive); with A498 it was 27.1 µM (inactive); in the assay on HCT-15 it was greater than 100 µM; in the assay on SK-MEL-2, 80.2 µM (inactive); with OVCAR-5 it was > 100 µM (inactive); in the assay on RPMI-8226, > 100 µM (inactive). Besides, the GI50 is 41.5 µM (inactive) in the assay on A549; > 100 µM (inactive) in the assay on K562; 35.2 µM (inactive) with 786-0; > 100 µM (inactive) in the assay on COLO 205; > 100 µM (inactive) with SK-MEL-28; 61.5 µM (inactive) in the assay on SK-MEL-5. The GI50 with RXF 393 was 15.1 µM (inactive); in the assay with SF-539, 23.2 µM (inactive); with NCI-H23, 24.4 µM (inactive); with HCC 2998 it was 53.7 µM (inactive); with SF-268, 22.5 µM (inactive); in the assay with CAKI-1, 29.4 µM (inactive).

In the case of `COc1ccccc1NC(=O)CSC(N)=O`, the GI50 with A498 was > 100 µM (inactive); with HCT-15 it was 42.8 µM; in the assay with SK-MEL-2, 22.9 µM (inactive); with OVCAR-5, > 100 µM (inactive); in the assay with RPMI-8226, 39.4 µM (inactive); in the assay with A549, 72.6 µM (inactive). The GI50 in the assay on K562 was 46 µM (inactive); in the assay with 786-0 it was 19.1 µM (inactive); with COLO 205, > 100 µM (inactive); with SK-MEL-28, 48.1 µM (inactive); in the assay on SK-MEL-5 it was 47.8 µM (inactive); in the assay with SF-539 it was 34 µM (inactive). Further, the GI50 was 69.3 µM (inactive) in the assay on NCI-H23, > 100 µM (inactive) in the assay with HCC 2998, 53.8 µM (inactive) in the assay with SF-268 and 33.6 µM (inactive) in the assay on CAKI-1.

With `O=C(NCCO)c1cc2c(cn1)[nH]c1ccccc12`, the GI50 with UO-31 is > 100 µM (inactive); in the assay on A498, > 100 µM (inactive); in the assay on HCT-15, greater than 100 µM; in the assay with SK-MEL-2, 16.8 µM (inactive); in the assay with OVCAR-5, > 100 µM (inactive); in the assay with RPMI-8226 it was > 100 µM (inactive). For the same molecule, the GI50 in the assay with A549 was > 100 µM (inactive); in the assay on K562 it was > 100 µM (inactive); in the assay with 786-0, 17.4 µM (inactive); in the assay with COLO 205, > 100 µM (inactive); in the assay on SK-MEL-28, > 100 µM (inactive); in the assay on SK-MEL-5, > 100 µM (inactive). In addition, the GI50 in the assay with RXF 393 was > 100 µM (inactive); with SF-539, > 100 µM (inactive); in the assay with NCI-H23 it was > 100 µM (inactive); in the assay with HCC 2998 it was 16.9 µM (inactive); in the assay on SF-268 it was > 100 µM (inactive); in the assay on CAKI-1, > 100 µM (inactive).

`CN(C)CCC1(C2=CCCC2)CC/C(=C\c2ccc3c(c2)OCO3)C1=O` (stereo not drawn): the GI50 is 7.52 µM (inactive) in the assay with UO-31; 12.2 µM (inactive) in the assay on A498; 13.9 µM with HCT-15; 16.9 µM (inactive) in the assay on SK-MEL-2; 15.8 µM (inactive) in the assay on OVCAR-5; 23.7 µM (inactive) with RPMI-8226. Besides, the GI50 in the assay on A549 was 16 µM (inactive); with K562 it was 11.5 µM (inactive); in the assay with 786-0 it was 14 µM (inactive); in the assay with COLO 205, 18.7 µM (inactive); in the assay on SK-MEL-28, 14.3 µM (inactive); in the assay with SK-MEL-5, 14.1 µM (inactive). Moreover, the GI50 in the assay on RXF 393 was 9.14 µM (inactive); in the assay on SF-539, 16 µM (inactive); in the assay with NCI-H23 it was 18.4 µM (inactive); in the assay on HCC 2998, 15.8 µM (inactive); in the assay with SF-268, 14.4 µM (inactive).

Regarding `Cc1oc2c(C)c3oc(=O)cc(C)c3cc2c1CN1C(=O)C2OCCOCCOCCOCCOCCO[C@H]2C1=O` (stereo partly drawn), the GI50 with UO-31 is > 100 µM (inactive); in the assay on A498, > 100 µM (inactive); in the assay on HCT-15 it was greater than 100 µM; in the assay on OVCAR-5, > 100 µM (inactive); in the assay on RPMI-8226, > 100 µM (inactive); with A549, > 100 µM (inactive). Besides, the GI50 in the assay with K562, in the assay on 786-0, in the assay on COLO 205, in the assay on SK-MEL-5, in the assay on RXF 393 and in the assay with SF-539 was > 100 µM (inactive) in each case. The GI50 with NCI-H23, in the assay with HCC 2998, in the assay with SF-268 and in the assay on CAKI-1 was > 100 µM (inactive) each time.

Consider `Cc1cccc(Cl)c1NC(N)=S`, for which the GI50 with UO-31 is 51.6 µM (inactive); with A498 it was 66.7 µM (inactive); in the assay on HCT-15, 18.4 µM; in the assay on OVCAR-5, 63.8 µM (inactive); with RPMI-8226, 19 µM (inactive); in the assay with A549, 82.8 µM (inactive). Moreover, the GI50 with K562 was 28.3 µM (inactive); with 786-0, 20.2 µM (inactive); in the assay on COLO 205 it was > 100 µM (inactive); with SK-MEL-28 it was 55.1 µM (inactive); in the assay with SK-MEL-5, > 100 µM (inactive); with SF-539, 33.7 µM (inactive). Further, the GI50 in the assay with NCI-H23 was 83 µM (inactive); in the assay on HCC 2998 it was > 100 µM (inactive); with SF-268, 51.3 µM (inactive); in the assay with CAKI-1, 43.7 µM (inactive).

For `CCN(CC)c1ccc(/N=N\c2ccc(-c3nc4ccc[n+](C)c4s3)cc2)cc1`, the GI50 in the assay on UO-31 was 22.8 µM (inactive); in the assay with A498, 13.4 µM (inactive); in the assay with HCT-15, 16.7 µM; in the assay with SK-MEL-2 it was 7.83 µM (inactive); with OVCAR-5, 17.1 µM (inactive); in the assay with RPMI-8226 it was 2.79 µM (inactive). Moreover, the GI50 was 4.2 µM (inactive) in the assay with A549; 2.4 µM (inactive) in the assay with K562; 17.1 µM (inactive) in the assay on 786-0; 3.24 µM (inactive) in the assay on COLO 205; 5.48 µM (inactive) with SK-MEL-5; > 10 µM (inactive) in the assay on RXF 393. In addition, the GI50 in the assay on SF-539 was 11 µM (inactive); in the assay with NCI-H23, 5.5 µM (inactive); in the assay with SF-268, 6.07 µM (inactive); with CAKI-1, 19.7 µM (inactive).

As for `O=c1cccccc1NCCOCCNc1cccccc1=O`, the GI50 in the assay on UO-31 is > 100 µM (inactive); in the assay with A498, > 100 µM (inactive); in the assay on HCT-15, greater than 100 µM; in the assay with SK-MEL-2, > 100 µM (inactive); in the assay on OVCAR-5 it was > 100 µM (inactive); with RPMI-8226 it was > 100 µM (inactive). Besides, the GI50 with A549, in the assay on K562, in the assay with 786-0, with COLO 205, with SK-MEL-28 and with SK-MEL-5 was > 100 µM (inactive) each time. Also, the GI50 in the assay with NCI-H23, with HCC 2998, in the assay with SF-268 and with CAKI-1 was > 100 µM (inactive) each time.
